Earlier results, collected in patent publication US20170027976A1, “NOVEL ADEMETIONINE FORMULATIONS” (METHYLATION SCIENCES INTERNATIONAL SRL, priority 2014, published 2017).

Conditions: background statement; large daily doses required

uptake of ademetionine: < 5%
Compound: C[S+](CC[C@H](N)C(=O)[O-])C[C@H]1O[C@@H](n2cnc3c(N)ncnc32)[C@H](O)[C@@H]1O (stereo partly drawn) [ademetionine, S-adenosyl-L-methionine]
